Entries after “also recorded” stand apart in the source; their conditions may differ. Read-outs that look alike come from different tables or passages of the source.
Key:
[1] = cited from earlier work; for oral bioavailability of cytarabine: cytarabine versus its L-valyl prodrug valcytarabine
[2] = in human; parent drug versus its prodrug LY2140023; cited from earlier work
hPEPT1 = target: T1, hPEPT1 (Homo sapiens, UniProt P46059); assay: Uptake by MDCK-hPEPT1 cells versus MDCK mock cells; type: cell-based; settings: Fig. 6A
T1 sequence (P46059 1-708): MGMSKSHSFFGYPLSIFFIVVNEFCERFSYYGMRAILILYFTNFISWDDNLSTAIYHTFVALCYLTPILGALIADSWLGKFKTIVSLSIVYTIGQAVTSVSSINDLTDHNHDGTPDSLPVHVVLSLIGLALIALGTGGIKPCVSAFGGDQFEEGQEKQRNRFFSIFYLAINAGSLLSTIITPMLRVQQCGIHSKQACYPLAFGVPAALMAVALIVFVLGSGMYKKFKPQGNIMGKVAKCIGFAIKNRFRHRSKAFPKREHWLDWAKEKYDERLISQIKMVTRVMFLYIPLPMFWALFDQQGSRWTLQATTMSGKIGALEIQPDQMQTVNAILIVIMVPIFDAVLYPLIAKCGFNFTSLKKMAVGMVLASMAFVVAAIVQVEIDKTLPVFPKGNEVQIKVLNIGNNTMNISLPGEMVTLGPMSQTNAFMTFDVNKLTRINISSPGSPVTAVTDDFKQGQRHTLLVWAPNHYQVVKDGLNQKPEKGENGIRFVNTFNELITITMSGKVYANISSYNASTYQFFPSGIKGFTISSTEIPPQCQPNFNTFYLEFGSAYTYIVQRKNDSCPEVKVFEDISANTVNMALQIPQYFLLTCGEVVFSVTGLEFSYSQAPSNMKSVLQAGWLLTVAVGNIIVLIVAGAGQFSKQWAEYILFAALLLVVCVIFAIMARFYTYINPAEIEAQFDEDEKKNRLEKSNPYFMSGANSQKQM

[3] = background value, no reference given; cited from earlier work
[4] = rat plasma, intravenous injection 8 mg/kg
[5] = rat plasma, oral administration, 160 mg/kg calculated as peramivir

In the case of CC(C)C(N)C(=O)OCC1OC(n2ccc(N)nc2=O)C(O)C1O (centres unmarked) [valcytarabine], the “oral bioavailability of cytarabine” value [1] is listed as 60.0%.
In the case of Nc1ccn([C@@H]2O[C@H](CO)[C@@H](O)[C@@H]2O)c(=O)n1 [cytarabine], the “oral bioavailability of cytarabine” value [1] is listed as 21.8%.
In the case of N[C@@]1(C(=O)O)CS(=O)(=O)[C@H]2[C@H](C(=O)O)[C@H]21 [LY404039], the “oral bioavailability of the parent drug LY404039” value [2] is given as 6.0%.
For CCC(CC)[C@H](NC(C)=O)[C@@H]1[C@H](O)[C@@H](C(=O)O)C[C@H]1N=C(N)N [Peramivir], the “PEPT1-mediated transport (uptake in MDCK-hPEPT1 versus mock cells)” value (hPEPT1) was “no PEPT1-mediated transport; also recorded: not (statistically) significant different between MDCK-hPEPT1 and MDCK mock cells”, the “AUC0-∞ of peramivir” value [4] was 3604.8 ng·h/mL and the t1/2 of peramivir [4] was 3.9 h. For the same compound, the “AUC0-∞ of peramivir” value [5] was 2955.9 ng·h/mL, the Cmax of peramivir [5] was 771.6 ± 278.3 ng/mL and the Tmax of peramivir [5] was 1.0 h. For the same compound, the t1/2 of peramivir [5] was 3.2 h, the “F, absolute oral bioavailability of peramivir” value (rat, oral 160 mg/kg calculated as peramivir versus i.v. peramivir 8 mg/kg) was 4.1% and the “log P” value [3] was −1.4. For the same compound, the oral bioavailability ([1]; peramivir given orally, background value, reference not given) was 3%.
For CSCC[C@H](N)C(=O)N[C@@]1(C(=O)O)CS(=O)(=O)[C@H]2[C@H](C(=O)O)[C@H]21 [LY2140023], the “oral bioavailability of the parent drug LY404039” value [2] is given as 68.0%.

— PMC7032255 (Asian Journal of Pharmaceutical Sciences, 2018)
